How the values were obtained:
[1] = system: GLP-1R-expressing HEK293 cells + Dyngo-4A (phosphoproteome); test: Phosphoproteomics, GLP-1R-transfected cells with internalization inhibitor Dyngo-4A, 30 min; assay type: cell-based, human; conditions: 50 μM, 30 min preincubation
Protocol: P values were calculated by a two-sided unpaired t-test.
HEK293 cells (350,000 cells/mL) were transfected in suspension using 3 μg of linear PEI (MW 25,000) per 1 μg of plasmid DNA and seeded onto poly-D-lysine-coated 60 mm dishes at a density of 1,750,000 cells per dish. After a 24-h incubation, cells were washed twice with PBS and placed in starvation media (DMEM with penicillin/streptomycin). After a 48-h incubation, cells were washed twice with HBSS and maintained in the same buffer. […] Cell extracts were prepared as previously described[64]–[66]. In short, 200 μL of the lysis buffer preheated at 95 °C (4% sodium dodecyl sulfate in 50 mM Tris adjusted to pH 8.5) was added to the cells. The samples were then denatured at 95 °C for 10 min, placed on ice and then sonicated using a probe sonicator (3 sec on, 3 sec off pulse, 1 min, 30% amplitude) (Branson). Lysate protein concentration was determined using the Pierce bicinchoninic acid assay kit (Thermo Fisher Scientific) according to the manufacturer’s instructions. The lysates were reduced using 5 mM dithiothreitol for 1 h at room temperature and alkylated using 15 mM iodoacetamide for 1 h at room temperature in the dark. Proteins were precipitated and digested on beads using MagReSyn Amine magnetic beads (ReSyn Biosciences) according to the manufacturer’s instructions. Protein digestion was conducted overnight at 37 °C with lysyl endopeptidase (LysC, Wako) (1:150 LysC/protein, w/w) and trypsin (1:300 trypsin/protein, w/w). 20% TFA, 2 M glycolic acid in 80% ACN were added to the samples at a 1:1 ratio for phosphopeptide enrichment using MagReSyn TiO2 magnetic beads (ReSyn Biosciences) according to the manufacturer’s instructions. The enriched phosphopeptides were dried overnight in a SpeedVac, resuspended into 5% formic acid (FA), desalted using StageTip (Thermo Fisher Scientific) according to the manufacturer’s instructions and dried in a SpeedVac. The experiment was performed in biological triplicates.
All parameters and settings regarding the acquisition of the proteomics data can be found in Supplementary Data 11, 12. For data acquisition, the instrument was set to peptide mode, with a trapping pressure set as low (2mTorr). An EASY-Spray Source (Thermo Fisher Scientific) was used and the column temperature was maintained with the integrated, temperature-controlled heater at 55 °C throughout the experiment. For the data presented in Fig. 5d, the column was heated at 50 °C following the manufacturer’s instructions (IonOpticks).
Acquired raw files were converted to mzML format by MSConvert (version 3.0.21258)[67] applying peak picking of the mass spectra with the vendor-provided algorithm (Thermo Fisher Scientific). The mzML files were analyzed using the FragPipe GUI v18 for both library and DIA search. […] Trypsin with up to 2 missed cleavages was set as digestion enzyme, oxidation of methionine, acetylation of the N-terminus and phosphorylation on serine, threonine and tyrosine (maximal occurrence was set to three) were set as variable modifications. Carbamidomethylation of cysteine residues was set as a fixed modification. Peptide length was restricted to 7 to 50 amino acids, and 500 to 5000 Da. The precursor tolerance was set to ±20 ppm, fragment mass tolerance to 20 ppm and MSBooster was enabled. The resulting peptide-spectrum matches were adjusted to a 1% false discovery rate with Percolator[69] as part of the Philosopher toolkit (v4.4)[70] and converted to a spectra library. DIA files were analyzed by DIA-NN 1.8.1[71], [72] using the previously generated library and monitor-command mode. Peptide quantification was performed based on the fragment elution profiles from the MS2 level (area under the curve).
All further data processing was performed in R (version 4.2.1). Only phosphopeptides with a localization score of at least 0.75 were considered for further analysis. […]

[2] = ref [56], [57], cited from earlier work
[3] = Adverse drug event analysis (FAERS, log likelihood ratio); conditions: for logLR: Fig. 6d; for proportion, Pancreatic disease: ADR_TERM Pancreatic disease
[4] = SOC Endocrine disorders, FAERS via Open Targets
[5] = SOC Gastrointestinal disorders, FAERS via Open Targets
[6] = SOC Investigations, FAERS via Open Targets
[7] = SOC Metabolism and nutrition disorders, FAERS via Open Targets

O=C(N/N=C/c1cc(O)c(O)cc1O)c1cc2ccccc2cc1O [Dyngo-4A]
effect on magnitude of agonist-induced phosphorylation events [1]: affected

CC[C@H](C)[C@H](NC(=O)[C@H](Cc1ccccc1)NC(=O)[C@H](CCC(=O)O)NC(=O)[C@H](CCCCNC(=O)COCCOCCNC(=O)COCCOCCNC(=O)CC[C@H](NC(=O)CCCCCCCCCCCCCCCCC(=O)O)C(=O)O)NC(=O)[C@H](C)NC(=O)[C@H](C)NC(=O)[C@H](CCC(N)=O)NC(=O)CNC(=O)[C@H](CCC(=O)O)NC(=O)[C@H](CC(C)C)NC(=O)[C@H](Cc1ccc(O)cc1)NC(=O)[C@H](CO)NC(=O)[C@H](CO)NC(=O)[C@@H](NC(=O)[C@H](CC(=O)O)NC(=O)[C@H](CO)NC(=O)[C@@H](NC(=O)[C@H](Cc1ccccc1)NC(=O)[C@@H](NC(=O)CNC(=O)[C@H](CCC(=O)O)NC(=O)C(C)(C)NC(=O)[C@@H](N)Cc1cnc[nH]1)[C@@H](C)O)[C@@H](C)O)C(C)C)C(=O)N[C@@H](C)C(=O)N[C@@H](Cc1c[nH]c2ccccc12)C(=O)N[C@@H](CC(C)C)C(=O)N[C@H](C(=O)N[C@@H](CCCNC(=N)N)C(=O)NCC(=O)N[C@@H](CCCNC(=N)N)C(=O)NCC(=O)O)C(C)C [Semaglutide]
pancreatitis reports, in words ([2]; FAERS): lower incidence of pancreatitis
logLR, diabetic ketoacidosis [2, 4]: 101.6
logLR, diabetic retinopathy [2, 4]: 83.01
logLR, abdominal pain [2, 5]: 80.54
logLR, diarrhoea [2, 5]: 91.4
logLR, eructation [2, 5]: 76.22
logLR, gastrointestinal disorder [2, 5]: 66.93
logLR, nausea [2, 5]: 351
logLR, pancreatic carcinoma [2, 5]: 37.15
logLR, pancreatitis [2, 5]: 599.6
logLR, pancreatitis acute [2, 5]: 54.4
logLR, vomiting [2, 5]: 332.8
logLR, decreased appetite ([2]; SOC General disorders and administration site conditions, FAERS via Open Targets): 42.19
logLR, blood glucose increased [2, 6]: 43.39
logLR, glycosylated haemoglobin increased [2, 6]: 60.95
logLR, heart sounds [2, 6]: 49.27
logLR, lipase increased [2, 6]: 49.97
logLR, weight decreased [2, 6]: 122.9
logLR, dehydration [2, 7]: 53.42
logLR, euglycaemic diabetic ketoacidosis [2, 7]: 71.84
logLR, retinopathy [2, 7]: 95.38
logLR, acute kidney injury ([2]; SOC Renal and urinary disorders, FAERS via Open Targets): 39.07
logLR, prolonged expiration ([2]; SOC Respiratory disorders, FAERS via Open Targets): 36.95
logLR ([3]; Endocrine disorders: diabetic ketoacidosis): 101.6
logLR ([3]; Endocrine disorders: diabetic retinopathy): 83.01
logLR ([3]; Gastrointestinal disorders: abdominal pain): 80.54
logLR ([3]; Gastrointestinal disorders: diarrhoea): 91.4
logLR ([3]; Gastrointestinal disorders: eructation): 76.22
logLR ([3]; Gastrointestinal disorders: gastrointestinal disorder): 66.93
logLR ([3]; Gastrointestinal disorders: nausea): 351
logLR ([3]; Gastrointestinal disorders: pancreatic carcinoma): 37.15
logLR ([3]; Gastrointestinal disorders: pancreatitis): 599.6
logLR ([3]; Gastrointestinal disorders: pancreatitis acute): 54.4
logLR ([3]; Gastrointestinal disorders: vomiting): 332.8
logLR ([3]; General disorders and administration site conditions: decreased appetite): 42.19
logLR ([3]; Investigations: blood glucose increased): 43.39
logLR ([3]; Investigations: glycosylated haemoglobin increased): 60.95
logLR ([3]; Investigations: heart sounds): 49.27
logLR ([3]; Investigations: lipase increased): 49.97
logLR ([3]; Investigations: weight decreased): 122.9
logLR ([3]; Metabolism and nutrition disorders: dehydration): 53.42
logLR ([3]; Metabolism and nutrition disorders: euglycaemic diabetic ketoacidosis): 71.84
logLR ([3]; Metabolism and nutrition disorders: retinopathy): 95.38
logLR ([3]; Renal and urinary disorders: acute kidney injury): 39.07
logLR ([3]; Respiratory disorders: prolonged expiration): 36.95
proportion, Abdominal pain ([3]; Supplementary Fig. 21, ADR_TERM Abdominal pain): 0.04766
proportion, Diarrhoea ([3]; Supplementary Fig. 21, ADR_TERM Diarrhoea): 0.05408
proportion, Eructation ([3]; Supplementary Fig. 21, ADR_TERM Eructation): 0.0451
proportion, Gastrointestinal disorder ([3]; Supplementary Fig. 21, ADR_TERM Gastrointestinal disorder): 0.03961
proportion, Nausea ([3]; Supplementary Fig. 21, ADR_TERM Nausea): 0.2077
proportion, Pancreatic disease ([3]; Supplementary Fig. 21, first group): 0.02198
proportion, Pancreatic disease ([3]; Supplementary Fig. 21, fourth group (r25-r28)): 0.03219
proportion, Pancreatic disease ([3]; Supplementary Fig. 21, third group (r21-r24)): 0.3548
proportion, Vomiting ([3]; Supplementary Fig. 21, ADR_TERM Vomiting): 0.1969

Source: publication PMC10562414, “GLP-1R signaling neighborhoods associate with the susceptibility to adverse drug reactions of incretin mimetics” (Nature Communications, 2023)
